Data as given in patent publication US20170121385A1 (Oxeia Biopharmaceuticals, Inc., priority 2015, published 2017).
Where two headings read alike, the source gives them in different places.

Key:
GHS-R = GHS-R (Homo sapiens, UniProt Q92847); assay: GHS-R antagonist activity in a cell based assay; details: GHS-R modulating compounds
[1] = human, in vivo; cited from earlier work
rodent brain injury = details: cited from earlier work
mild TBI [2] = assay: mild TBI model (controlled cortical impactor), whole brain oxidative burst assay by flow cytometry; type: in vivo, mouse
Procedure: In a mild TBI model, ghrelin therapy provided significant neuroprotective effects. Using a controlled cortical impactor, with standardized settings (5.0 m/s, a 3 mm diameter impounder tip, a depth of 1.0 mm, and a dwell time of 0.2 milliseconds), a mouse mild brain injury was elicited in three groups (n=5 in each group), sham, mTBI only, mTBI with 2 doses of ghrelin (50 μg/kg) 10 minutes and 1 hour after injury. Animals were sacrificed after 24 hours and whole brain reactive oxygen species was assessed by an oxidative burst assay as measured by flow cytometry. […] Ghrelin therapy decreased mTBI oxidative burst to sham levels 3,300 MFI (SEM 1,000); p<0.05 mTBI compared to drug treated.

mild TBI [3] = assay: mild TBI model, myeloperoxidase (MPO) and Gr-1 (neutrophil) staining in the hippocampus; type: in vivo, mouse; details: same three animal groups
Procedure: In a mild TBI model, ghrelin therapy provided significant neuroprotective effects. Using a controlled cortical impactor, with standardized settings (5.0 m/s, a 3 mm diameter impounder tip, a depth of 1.0 mm, and a dwell time of 0.2 milliseconds), a mouse mild brain injury was elicited in three groups (n=5 in each group), sham, mTBI only, mTBI with 2 doses of ghrelin (50 μg/kg) 10 minutes and 1 hour after injury. Ghrelin reduces oxidative burst (a measure of ROS) following mild TBI in animal models. Oxidative burst was determined 24 hours following mild TBI in three groups via flow cytometry. […] In separate experiments, using the same three animal groups, myeloperoxidase (MPO) and Gr-1 (neutrophil) staining were conducted in the hippocampus. […] Myeloperoxidase (MPO) is a potent enzyme in neutrophils and […] that forms hypochlorous acid (ROS). […] Ghrelin therapy reduced MPO staining. These observations built upon previous work showing ghrelin's protective effect following severe TBI models, stroke and other neurodegenerative diseases.

severe TBI [4] = assay: severe TBI model (brain tissue loss, apoptosis, balance beam foot faults, edema); type: in vivo, mice; details: as low as 20 μg/kg in two doses early after injury; pre-clinical modeling
Excerpt: In a series of publications, the Bansal laboratory has shown that exogenously dosed ghrelin confers significant neuroprotective benefits following severe TBI. […] Severe TBI causes significant tissue necrosis and neuron loss secondary to edema and apoptosis. […] Severe TBI induces apoptosis within the neocortex (TUNEL staining green). […] Severe TBI caused significant neurocognitive defects (as measured by foot faults on a balance beam assay) on post-TBI Day 1, 3 and 7 compared to sham.

severe TBI [5] = details: cited from earlier work; for brain tissue loss / loss of brain volume: 7 days following injury, 10 minutes and 1 hour after TBI; for brain tissue loss / loss of brain volume / apoptosis in the neocortex (TUNEL staining): ghrelin 20 μg/kg; for apoptosis in the neocortex (TUNEL staining): two doses

GHS-R, sequence (Q92847 whole entry, species assumed): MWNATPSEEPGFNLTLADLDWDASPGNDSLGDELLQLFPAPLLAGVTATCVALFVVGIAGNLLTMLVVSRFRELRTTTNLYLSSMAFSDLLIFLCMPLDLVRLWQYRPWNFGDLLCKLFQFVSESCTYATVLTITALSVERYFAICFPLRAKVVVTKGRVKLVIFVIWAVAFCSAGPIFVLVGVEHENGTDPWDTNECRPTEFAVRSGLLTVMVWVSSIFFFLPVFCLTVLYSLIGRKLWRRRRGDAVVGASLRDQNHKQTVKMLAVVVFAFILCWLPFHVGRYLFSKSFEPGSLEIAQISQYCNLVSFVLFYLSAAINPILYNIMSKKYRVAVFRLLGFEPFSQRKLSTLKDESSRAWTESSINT

Molecule | Ki (GHS-R) | serious adverse events [1] | side effects observed [1] | ROS accumulation (rodent brain injury) | neuro-cognitive function (rodent brain injury) | neuron tissue loss (rodent brain injury) | neuronal apoptosis (rodent brain injury) | efficacy in mTBI (mild TBI [2]; 50 μg/kg, two doses administered within 24 hours of injury, initial pre-clinical experiments) | oxidative burst (a measure of ROS) following mild TBI (mild TBI [2]; 24 hours following mild TBI, flow cytometry) | oxidative burst (whole brain reactive oxygen species) (mild TBI [2]; mouse mTBI, 2 doses of ghrelin (50 μg/kg) 10 minutes and 1 hour after injury, sacrificed after 24 hours, flow cytometry, n=5) | MPO staining in the hippocampus (mild TBI [3]) | neutrophil infiltration (Gr-1 staining) in the hippocampus (mild TBI [3]) | post-severe TBI edema (severe TBI [4]) | brain tissue loss / loss of brain volume (severe TBI [5]; listed as ghrelin) | brain tissue loss / loss of brain volume (severe TBI [5]) | invasion of inflammatory cells (severe TBI [5]) | apoptosis in the neocortex (TUNEL staining) (severe TBI [5]; listed as ghrelin) | apoptosis in the neocortex (TUNEL staining) (severe TBI [5]) | neurocognitive function (foot faults on a balance beam assay) (severe TBI [5]; post-TBI Day 1, 3 and 7, ghrelin dosed only at Day 0, listed as ghrelin) | neurocognitive function (foot faults on a balance beam assay) (severe TBI [5]; post-TBI Day 1, 3 and 7, ghrelin dosed only at Day 0)
CCN(CC)CCCS(=O)(=O)N[C@H](CCc1ccccc1)c1nc(-c2cncc(Br)c2)no1 [Compound 103] | 0.1 to 0.5 µM | – | – | – | – | – | – | – | – | – | – | – | – | – | – | – | – | – | – | –
Ghrelin (GSSFLSPEHQRVQQRKESKKPPAKLQPR; Ghrelin-28; UniProt Q9UBU3 24-51, looked up) | – | no serious adverse events | only transient gastrointestinal symptoms | prevents | improves | decreases | prevents | efficacy | significantly reduced | 3,300 MFI | significant reduction | significant reduction | significant decrease | significantly less | significantly decreased | decreased | significantly less | significantly reduced | improved | prevented neurocognitive decline to levels of sham
